Laboratory results reported in ChEMBL document CHEMBL2424552, “Cytotoxic effect of novel dehydroepiandrosterone derivatives on different cancer cell lines” (2013).

Key:
Type in all cases: functional
SK-LU-1 = experiment: Growth inhibition of human SKLU1 cells at 50 uM after 48 hrs by SRB assay relative to control; conditions: SK-LU-1, 48 h, read-out: GI
PC-3 = experiment: Growth inhibition of human PC3 cells at 50 uM after 48 hrs by SRB assay relative to control; conditions: PC-3, 48 h, read-out: GI
MCF7 = experiment: Growth inhibition of human MCF7 cells at 50 uM after 48 hrs by SRB assay relative to control; conditions: MCF7, 48 h, read-out: GI

| Compound | inhibition of growth at 50 µM (SK-LU-1) | inhibition of growth at 50 µM (PC-3) | inhibition of growth at 50 µM (MCF7) |
| --- | --- | --- | --- |
| C[C@]12CC[C@H](OC(=O)C3CCCCCC3)CC1=CC[C@@H]1[C@@H]2CC[C@]2(C)C(n3cncn3)=C(C=O)C[C@@H]12 | 94.7% | 36.8% | 78% |
| C[C@]12CC[C@H](OC(=O)c3ccc(C(F)(F)F)cc3)CC1=CC[C@@H]1[C@@H]2CC[C@]2(C)C(n3cncn3)=C(C=O)C[C@@H]12 | 89.1% | 100% | 100% |
| C[C@]12CC[C@H](OC(=O)c3ccc([N+](=O)[O-])cc3)CC1=CC[C@@H]1[C@@H]2CC[C@]2(C)C(n3cccn3)=C(C=O)C[C@@H]12 | 7.5% | 16.7% | 20.2% |
| C[C@]12CC[C@H](OC(=O)C3CCCCC3)CC1=CC[C@@H]1[C@@H]2CC[C@]2(C)C(n3cncn3)=C(C=O)C[C@@H]12 | 24.9% | 0% | 11% |
| COc1ccc(C(=O)O[C@H]2CC[C@@]3(C)C(=CC[C@@H]4[C@@H]3CC[C@]3(C)C(n5cccn5)=C(C=O)C[C@@H]43)C2)cc1 | 80% | 51.5% | 100% |
| C[C@]12CC[C@H](OC(=O)c3ccc(Cl)cc3)CC1=CC[C@@H]1[C@@H]2CC[C@]2(C)C(n3cccn3)=C(C=O)C[C@@H]12 | 20.7% | 24.6% | 32.4% |
| C[C@]12CC[C@H](OC(=O)c3ccc(C(F)(F)F)cc3)CC1=CC[C@@H]1[C@@H]2CC[C@]2(C)C(n3cccn3)=C(C=O)C[C@@H]12 | 73.3% | 78.2% | 0% |
| C[C@]12CC[C@H](OC(=O)c3ccc(I)cc3)CC1=CC[C@@H]1[C@@H]2CC[C@]2(C)C(n3cccn3)=C(C=O)C[C@@H]12 | 93.5% | 58.4% | 96.8% |
| C[C@]12CC[C@H](O)CC1=CC[C@@H]1[C@@H]2CC[C@]2(C)C(n3cccn3)=C(C=O)C[C@@H]12 | 100% | 100% | 41.6% |
| Cc1ccc(C(=O)O[C@H]2CC[C@@]3(C)C(=CC[C@@H]4[C@@H]3CC[C@]3(C)C(n5cncn5)=C(C=O)C[C@@H]43)C2)cc1 | 68% | 3.1% | 48.7% |
| C[C@]12CC[C@H](OC(=O)c3ccc(C#N)cc3)CC1=CC[C@@H]1[C@@H]2CC[C@]2(C)C(n3cncn3)=C(C=O)C[C@@H]12 | 89.9% | 100% | 100% |
| C[C@]12CC[C@H](OC(=O)c3ccccc3)CC1=CC[C@@H]1[C@@H]2CC[C@]2(C)C(n3cccn3)=C(C=O)C[C@@H]12 | 5.8% | 31.4% | 32.6% |
| C[C@]12CC[C@H](OC(=O)c3ccc(C#N)cc3)CC1=CC[C@@H]1[C@@H]2CC[C@]2(C)C(n3cccn3)=C(C=O)C[C@@H]12 | 22.5% | 30.4% | 81.2% |
| C[C@]12CC[C@H](OC(=O)C3CCC3)CC1=CC[C@@H]1[C@@H]2CC[C@]2(C)C(n3cncn3)=C(C=O)C[C@@H]12 | 27% | 0% | 16.5% |
| C[C@]12CC[C@H](OC(=O)c3ccc([N+](=O)[O-])cc3)CC1=CC[C@@H]1[C@@H]2CC[C@]2(C)C(n3cncn3)=C(C=O)C[C@@H]12 | 100% | 85.7% | 100% |
| C[C@]12CC[C@H](OC(=O)C3CC3)CC1=CC[C@@H]1[C@@H]2CC[C@]2(C)C(n3cncn3)=C(C=O)C[C@@H]12 | 100% | 88.7% | 100% |
| C[C@]12CC[C@H](OC(=O)C3CCCC3)CC1=CC[C@@H]1[C@@H]2CC[C@]2(C)C(n3cncn3)=C(C=O)C[C@@H]12 | 0% | 23.8% | 0% |
| C[C@]12CC[C@H](OC(=O)c3ccc(Br)cc3)CC1=CC[C@@H]1[C@@H]2CC[C@]2(C)C(n3cccn3)=C(C=O)C[C@@H]12 | 17.4% | 3.7% | 18.5% |
| C[C@]12CC[C@H](OC(=O)c3ccc(F)cc3)CC1=CC[C@@H]1[C@@H]2CC[C@]2(C)C(n3cccn3)=C(C=O)C[C@@H]12 | 5.5% | 20.5% | 50.7% |
| C[C@]12CC[C@H](OC(=O)c3ccccc3)CC1=CC[C@@H]1[C@@H]2CC[C@]2(C)C(n3cncn3)=C(C=O)C[C@@H]12 | 39.7% | 21.8% | 33.5% |
| Cc1ccc(C(=O)O[C@H]2CC[C@@]3(C)C(=CC[C@@H]4[C@@H]3CC[C@]3(C)C(n5cccn5)=C(C=O)C[C@@H]43)C2)cc1 | 8.5% | 0% | 0% |
| COc1ccc(C(=O)O[C@H]2CC[C@@]3(C)C(=CC[C@@H]4[C@@H]3CC[C@]3(C)C(n5cncn5)=C(C=O)C[C@@H]43)C2)cc1 | 9.2% | 0% | 23% |
| CC(=O)N1CCN(c2ccc(OCC3COC(Cn4ccnc4)(c4ccc(Cl)cc4Cl)O3)cc2)CC1 (centres undefined) [KETOCONAZOLE] | 73.4% | 88.5% | 95.2% |
